Like-named read-outs stand apart in the source and are kept apart here. A value given as a limit tells only on which side of the number the result lay.

One series concerns UTI. Details: method as in PMID 38376151. To be noted: in vivo ascending UTI prophylaxis model; cited from earlier work.
Series [1] deals with UPEC strain CFT073. Nature of the series: Antimicrobial susceptibility assay, UPEC grown in MOPS-glycerol. The format is cell-based, Escherichia coli. To be noted: for MIC: Escherichia coli; for MIC / MIC MOPS-glycerol: UPEC CFT073 grown in MOPS-glycerol, 24 h, ± standard error; for fold increase in MIC (less potent) compared with 1 / activity against UPEC, highest concentration without activity: MOPS-glycerol. From the text: (§1) Unless otherwise noted, all reagents were obtained from commercial sources. BAP, 1, and N5-Pan analogs were synthesized according to previously reported procedures ([31], [53]). Urine was self-collected from adult males and females (not menstruating) between 24 and 57 years old (recruitment was open to donors 18–65 years old), who had not used anti-infectives or cranberry products for at least 7 days prior to collection. The collection protocol was approved by the Johns Hopkins University Institutional Review Boards under IRB study NA_00085130. Informed, written consent was obtained from all participants prior to collection. Urine was collected from at least 7 participants over 14 days, stored at 4°C upon collection, and then pooled, filter-sterilized, and frozen at −20°C. Urine Batch A included five male and three female donors with an average age of 33 years (range: 24–57). Urine Batch B included four male and five female donors with an average age of 26 years (range: 24–43). Samples from two donors (donations made at least 30 days apart) were included in both Batch A and Batch B. Urine Batch C included four male and three female donors with an average age of 27 years (range: 24–36). Urine Batch D included four male and three female donors with an average age of 27 years (range: 25–35). Solid urine agar plates were prepared by supplementing cooled 1.5% (wt/vol) agar with filter-sterilized urine in a 4:1 ratio. Liquid MOPS-glycerol was prepared by adding 10 × 3-(N-morpholino)propanesulfonic acid (MOPS) Buffer (Teknova) to water to a final 1× concentration, 1.32 mM K2HPO4, and 0.4% (vol/vol) glycerol and then filter-sterilizing. Unless otherwise noted, all media were supplemented with freshly prepared 20 µM FeSO4. OD600 analyses were performed on Mettler-Toledo UV5Bio UV/Visible spectrophotometer (Columbus, Ohio, USA). For antimicrobial studies, uropathogenic E. coli strain CFT073 (ATCC: BAA-2503) was provided by Kevin Schwartz from the lab of Rodney Welch. All manipulation of UPEC was conducted in a certified biosafety level 2 (BSL-2) laboratory while using BSL-2-associated safety procedures. Antimicrobial data were collected on a Biotek Epoch 2 microplate reader or a Biotek Synergy Neo 2 microplate reader. For metabolic stability studies, losartan potassium (PHR1602), used as an internal standard, was bought from Millipore Sigma (Burlington, MA). Methanol (A456-4) and acetonitrile (A955-4) were purchased from Fisher Chemical (Pittsburgh, PA). Water (9831-03) was purchased from JT Baker (Philipsburg, NJ). Dimethyl sulfoxide (DMSO)(154938-500mL) was purchased from Sigma Aldrich (St. Louis, MO). Mouse plasma (WT) was purchased from Innovative Research (Novi, MI). Mouse liver microsomes (M1000) were purchased from XenoTech LLC (Kansas City, KS).
(§2) All antimicrobial susceptibility assays were conducted as previously described using an aseptic technique with some modification ([7]). Briefly, 3–5 isolated colonies of CFT073 on LB agar or pooled urine agar were inoculated into 3 mL of liquid MOPS-glycerol medium or pooled urine, respectively, and grown overnight with shaking at 37°C. Saturated cultures were diluted 1:50 in fresh medium and grown to an OD600 of 0.4. These exponential phase cultures were then diluted 1:1,000 into fresh medium to yield the experimental inoculum, which was mixed 1:1 with medium containing 1 or N5-Pan analog at twice the desired final concentration in 96-well plates. The final concentration of bacteria in each well was approximately 10^5 CFU/mL in a final volume of 200 µL. The concentration ranges of compounds evaluated in MOPS-glycerol were: 1 (0–312.5 μM), 2 (0–100 μM), 3 (0–500 μM), 4–5 (0–2,000 μM), 6–7 (0–100 μM), and 8–12 (0-2,000 μM). Analogs 1, 6, and 7 were evaluated over a range of 0–4,000 μM in four batches of pooled human urine. The OD600 was monitored for 24 h (MOPS-glycerol) or 16 h (pooled urine) at 37°C with periodic shaking. […]

In a further series the test system is serum pantetheinases. To be noted: cited from earlier work.
A further series concerns E. coli. More on the design: method as in PMID 29332383. The note with it: cited from earlier work.
Series [2] can be described thus: Stability in mouse liver homogenate. It counts as in vitro ADME. As to the method: (§3) Stability studies were conducted in mouse liver microsomes, mouse liver tissue homogenate, and CD1 mouse plasma as previously described with minor modifications ([54][–][56]). Briefly, for Phase I mouse liver microsome stability, reactions were carried out with 200 mM potassium phosphate buffer, pH 7.4, with or without an NADPH-regenerating system (1.3 mM NADPH, 3.3 mM glucose 6-phosphate, 3.3 mM MgCl2, 0.4 U/mL glucose-6-phosphate dehydrogenase, and 50 µM sodium citrate). Reactions, in triplicate, were initiated by the addition of liver microsomes to the incubation mixture (compound final concentration was 1 µM; 0.2 mg/mL microsomes) and incubated at 37°C for the desired incubation time. For liver stability, the tissue homogenate was prepared by washing tissues with diluted 10-fold 0.1 M potassium phosphate buffer and homogenized using a probe sonicator over ice. To evaluate the stability of the drugs over time, each of the crude homogenates was aliquoted to 1 mL and then spiked with a final assay concentration of 10 µM of each drug, followed by incubation in an orbital shaker at 37°C for 1 h (in triplicate). For plasma stability, 1 mL of plasma was spiked with 10 µM of each drug, followed by incubation in an orbital shaker at 37°C for 1 h (in triplicate). Samples from each metabolism study were quenched with 3× volume of acetonitrile containing internal standard (losartan: 0.5 µM) at the desired incubation times. […] Samples were vortex-mixed for 30 s and centrifuged at 10,000 × g for 10 min at 4°C. Compound disappearance over time was monitored using a Dionex ultra-high-performance liquid chromatography system consisting of an analytical pump and an autosampler coupled with Q Exactive Focus orbitrap mass spectrometer (Thermo Fisher Scientific Inc., Waltham MA). […] The mobile phase used was composed of 0.1% formic acid in water and 0.1% formic acid in acetonitrile with gradient elution. The total run time for each analyte was 5 min.
(§4) The mass spectrometer was operated with a HESI ion source in positive ionization mode where compounds were identified in the full scan mode (from m/z 75.00–1125.00) and controlled by the Xcalibur software 4.0.27.13 (Thermo Scientific). Data were acquired using Xcalibur software. Drugs were identified in the full-scan mode (from m/z 75.00 to 1125.00) by comparing t = 0 samples with t = 30 or 60 min samples, and structures were proposed based on the accurate mass information. The percentage of compound remaining for pantothenamides 1, 6, and 7 was determined from the analyte/internal standard (IS) area ratios obtained at t = 30 or 60 min relative to the mean ratios obtained at t = 0 min and calculated using equation 1:
(§5) % Remaining=(Peak area of Analyte/Preak area of ISat t=30 or 60 min/MeanPeak area of Analyte/Peak area of ISat t=0 min)×100

The nature of series [3]: Stability in mouse plasma. It counts as in vitro ADME. Here is the method:
as §3, §4, §5

A short description of series [4]: Phase I metabolic stability in mouse liver microsomes. The format is in vitro ADME. The note with it: for remaining at 1 h, 1 µM: mouse, liver microsomes, pH 7.4, 1 h, 1 µM compound, 0.2 mg/mL microsomes. As to the method: as §3, §4, §5
The test system of series [5] is UPEC strain CFT073. Description: Antimicrobial susceptibility assay, UPEC grown in pooled human urine. The format is cell-based, Escherichia coli.
Description: as §1, §2

`CCCCOP(=O)(O)C(C)=O` [BAP, butylacetylphosphonate]: in the series on UTI, the “protection of mice against UTI” value is “partially protects”.

In general, MIC refers to the least concentration at which growth counts as inhibited. For the compound `CCCCNC(=O)CCNC(=O)[C@H](O)C(C)(C)CO` [compound 2], in the series with UPEC strain CFT073 [1], the minimal inhibitory concentration (MIC) was 4 µM and the “MIC MOPS-glycerol” value was found to be 4 ± 1 µM.

With `CCCCCCCNC(=O)CCNC(=O)[C@H](O)C(C)(C)CO` [compound 3], in the series with UPEC strain CFT073 [1], the MIC stood at 26 µM, the “fold increase in MIC (less potent) compared with 1” value was ~ 10 fold and the “MIC MOPS-glycerol” value was 26 ± 5 µM.

As for `CCCCCN(C)C(=O)CCNC(=O)[C@H](O)C(C)(C)CO` [compound 4, N-methyl N5-Pan], in the series with UPEC strain CFT073 [1], the minimal inhibitory concentration (MIC) is over 2000 µM and the “activity against UPEC, highest concentration without activity” value is over 2 mM.

Take `CCCCCCCN(C)C(=O)CCNC(=O)[C@H](O)C(C)(C)CO` [compound 5, N-methyl N7-Pan]: in the series on UPEC strain CFT073 [1], the MIC is over 2000 µM and the “activity against UPEC, highest concentration without activity” value is “similarly inactive”. The pantetheinase resistance result in the series with serum pantetheinases is “pantetheinase-resistant”. Moreover, the “activity against E. coli” value with E. coli was “inactive”.

By fraction remaining is commonly meant what is left of the initial amount, in per cent. As to `CCCCCC(=O)NCCNC(=O)[C@H](O)C(C)(C)CO` [compound 7], the MIC was 12.5 µM in the series with UPEC strain CFT073 [1]; at least 4000 µM in the series on UPEC strain CFT073 [5] (Escherichia coli, UPEC CFT073, all urine batches A-D, read-out: MIC across four batches of pooled urine); over 4000 µM with UPEC strain CFT073 [5] (UPEC CFT073, urine batch A, read-out: MIC in pooled human urine, urine batch A); 4000 µM in the series on UPEC strain CFT073 [5] (UPEC CFT073, urine batch B, read-out: MIC in pooled human urine, urine batch B). Also, the “MIC MOPS-glycerol” value in the series with UPEC strain CFT073 [1] is reported as 12.5 ± 0.00 µM. Moreover, the “stability in the presence of serum pantetheinases” value with serum pantetheinases is listed as “stable”. Also, in series [2] (1 h, 10% wt/vol homogenate, 10 µM compound, 37°C), the “% remaining in mouse liver homogenate” value is “no degradation”. For the same compound, the “stability in mouse liver homogenate” value in series [2] (n = 3) is listed as “good stability”. In addition, the amount remaining at 1 h, 10 µM in series [3] (CD1, mouse, plasma, 1 h, 10 µM compound, 37°C) stood at 93%. The “stability in mouse plasma” value in series [3] (n = 3) is on record as “good stability”. Besides, the fraction remaining at 1 h, 1 µM in series [4] (with NADPH, read-out: % remaining in mouse liver microsomes, presence of NADPH) was found to be 87%; in series [4] (without NADPH, read-out: % remaining in mouse liver microsomes, absence of NADPH) it was 87%. For the same compound, in series [4] (n = 3), the “stability in mouse liver microsomes” value is given as “good stability”.

Consider `CC(C)(CO)[C@@H](O)C(=O)NCCC(=O)NCc1ccccn1` [compound 8], for which, in the series on UPEC strain CFT073 [1], the MIC turned out to be 68 µM, the “fold increase in MIC (less potent) compared with 1” value was ~ 28 fold and the “MIC MOPS-glycerol” value came out at 68 ± 32 µM.

Regarding `CC(C)(CO)[C@@H](O)C(=O)NCCC(=O)NCc1cccnc1` [compound 9], the minimal inhibitory concentration (MIC) with UPEC strain CFT073 [1] was determined as 2000 µM.

Take `CC(C)(CO)[C@@H](O)C(=O)NCCC(=O)NCc1ccncc1` [compound 10]: the minimum inhibitory concentration (MIC) in the series on UPEC strain CFT073 [1] was over 2000 µM.

Consider `CC(NC(=O)CCNC(=O)[C@H](O)C(C)(C)CO)c1cccnc1` (some centres unmarked) [compound 11], for which the MIC in the series with UPEC strain CFT073 [1] is over 2000 µM.

On to `CN(Cc1cccnc1)C(=O)CCNC(=O)[C@H](O)C(C)(C)CO` [compound 12], for which, in the series with UPEC strain CFT073 [1], the MIC is over 2000 µM.

The values above are taken from publication PMC12323621, “Exploring the antimicrobial activity of pantothenamides against uropathogenic Escherichia coli” (Microbiology Spectrum, 2025).
